# Measured values from patent US12527788B2, “Defining RNA-small molecule affinity landscapes enables design of a small molecule inhibitor of an oncogenic non-coding RNA” (University of Florida Research Foundation, Incorporated, priority 2017, dated 2026).
# Experiments:
# [1] = biological target: RNAC (U bulge mutated to an AU pair); experiment: Fluorescence-based binding affinity measurement
# Protocol: FIG. 7: Secondary structures of the nucleic acids to which the binding of small molecule 4 was assessed. […] RNA1 contains the U bulge present in the Dicer processing site common to miR-17, -18a and -20a. RNA2 contains the A bulge that is present in miR-18a. RNA3 contains the G bulge present in miR-17 and miR-20a. Binding affinities (Kd's) are indicated in parentheses and are reported in micromolar.
# Mutation of the U bulge to an AU pair (RNAC) eliminates binding (Kd>100 μM).
# Binding Affinity Measurements: An in solution, fluorescence-based assay was used to determine binding affinities by monitoring the change in fluorescence intensity of 1-FL (or 2-FL/3-FL/4-FL) as a function of RNA concentration as described previously.^18 Briefly, the RNA of interest was folded in 1× Folding Buffer (8 mM Na2HPO4, pH 7.0, 185 mM NaCl and 1 mM EDTA) by heating at 60° C. for 5 min followed by slowly cooling to room temperature on the bench top. Then, the FL-conjugated compound was added into the RNA solution to a final concentration of 100 nM. Serial dilutions were then completed using 1× Folding Buffer supplemented with 100 nM FL-conjugated compound. The solutions were incubated at room temperature for 30 min and then transferred to a well of a black 384-well plate. […]
# [2] = system: 33 mature miRNAs with potential binding sites for 4; experiment: Profiling of mature miRNAs with potential binding sites in DU145 cells; type: cell-based, human
# Text: We further probed the selectivity of 4 by studying its effect on levels of other mature miRNAs (FIG. 8C) and on pre-miR-17, -18a and -20a. We identified miRNAs with potential binding sites for 4, as determined by HiT-StARTS, using a database of RNA folds in the human miRNA transcriptome,^38 including the 5′G_U/3′CUA bulge common to the Dicer processing sites in miR-17, -18a and -20a (n=33). The potential binding sites for 4 can occur anywhere in the miRNA; that is, they were not confined to Drosha or Dicer processing sites. Other miRNAs that contain the 5′G_U/3′CUA motif have a much lower expression level than miR-17, miR-18a, and miR-20. Studying these RNAs could allow assessment of influence of expression level on compound potency and selectivity, an important consideration in RNA targeting that has largely gone unaddressed.
# Collectively, it appears that it is easier to target and inhibit the biogenesis of highly expressed miRNAs than the ones that are of lower expression. Such effects have been well-documented in the protein-targeting community but until now have not been studied in RNA targeting endeavors.
# Cell Culture: DU145 cells were cultured in growth medium (Roswell Park Memorial Institute medium (RPMI) supplemented with 10% fetal bovine serum (FBS)) at 37° C. and 5% CO2 […]
# [3] = system: DU145 prostate cancer cells; experiment: Apoptosis by Annexin V/PI staining; type: cell-based; conditions: 10 μM and 20 μM
# Protocol: A, Effect of 4 on STK4 protein expression, a direct target of miR-18a. B, Ability of 4 (10 μM and 20 μM) and a miR-18a antagomir (50 nM) to trigger apoptosis. *, p<0.05 and **, p<0.01, as determined by a two-tailed Student t-test.
# Although the most common route to modulate protein expression is to inhibit them directly, here we show it is possible to increase protein expression by targeting non-coding RNAs that repress their production.
# [4] = system: STK4 protein; experiment: Western blotting of STK4 in DU145 cells; type: cell-based; conditions: 20 μM
# Protocol: A previous study has shown that miR-18a represses serine/threonine protein kinase 4 (STK4) protein, a tumor suppressor, in prostate cancer cells and promotes tumorigenesis.^45 Thus, we studied the ability of compound 4 to de-repress STK4 and trigger apoptosis. Treatment of DU145 cells with 20 μM of 4 increases levels of STK4 by 2.5-fold (FIG. 9A).
# Western Blotting: Cells were grown in 6-well plates to ˜80% confluency in complete growth medium and then incubated with 10 or 20 μM of 4 for 48 h. Total protein was extracted using M-PER Mammalian Protein Extraction Reagent (Pierce Biotechnology) per the manufacturer's recommended protocol. Extracted total protein was quantified using a Micro BCA Protein Assay Kit (Pierce Biotechnology). […]
# The membrane was briefly washed with 1× Tris-buffered saline (TBS; 50 mM Tris-CI, pH 7.5. 150 mM NaCl) and blocked with 5% milk in 1×TBST (1×TBS containing 0.05% Tween-20) for 1 h at room temperature. […] After washing with 1×TBST, protein expression was quantified using SuperSignal West Pico Chemiluminescent Substrate (Pierce Biotechnology) per the manufacturer's protocol.
# The membrane was then stripped using 1× Stripping Buffer (200 mM glycine, 1% Tween-20 and 0.1% SDS, pH 2.2) followed by washing in 1×TBST. […] ImageJ software from the National Institutes of Health was used to quantify band intensities.
compound,measurement,setting,value
CN1CCN(c2ccc(-c3ccc4nc(-c5cc(C(C)(C)C)c(OCCCC(=O)NCCCN=[N+]=[N-])c(C(C)(C)C)c5)[nH]c4c3)cc2)CC1 [Compound 4],Kd,[1],> 100 µM
same,Effect on levels of 33 other mature miRNAs,[2],no statistically significant effect
same,Apoptosis,[3],triggers apoptosis
same,Increase of STK4 levels,[4],2.5 fold
